# Read-outs that look alike come from different tables or passages of the source.
# Tests used:
# [1] = molecular target: T1, human CB2 receptor (hCB2R) (Homo sapiens, UniProt P34972); assay: TR-FRET hCB2R binding assay
# T1 construct: expressed in transfected cells; membranes
# [2] = molecular target: T2, CB2 receptor (hCB2R), CHO cell line stably overexpressing CB2 receptor (Homo sapiens, UniProt P34972); assay: cAMP hCB2R functional assay (HTRF); assay type: cell-based; settings: CHO cells overexpressing CB2 receptor, forskolin; for EC50: means ± SEM of 2-3 independent experiments; for Functionality: normalized to Emax of CP55940 (100%)
# T2 construct: expressed in transfected cells; host or cells: CHO cell line stably overexpressing CB2 receptor (G418 selection)
# Protocol: cAMP hCB2R Functional Assay
# The Homogeneous Time Resolved Fluorescence (HTRF) Assays
# The homogeneous time-resolved fluorescence (HTRF) cAMP assay was conducted according to the manufacturer's protocol for the cAMP-Gs Dynamic kit (Cisbio). Briefly, the CHO cell line stably overexpressing CB2 receptor were maintained in Ham's F12 supplemented with 10% FBS, 100 U/ml penicillin and 100 μg/ml streptomycin (Gibco-ThermoFisher) and 400 μg/ml G418 (ThermoFisher). For CB2 compounds test, harvest the cells with Cell Dissociation Buffer and re-suspend the cells in F-12 K at 0.4*10^6 cells/mL, and dispense cells into 384-well low volume plates at 2000 cells/5 μL per well. The cells were stimulated with compounds diluted in Stimulation Buffer (2.5 μL/well) for 15 min at room temperature. And then followed by the addition of 2.5 μL 25 μM forsklin. After 15 mins incubation, reactions were stopped by 5 μL/well cAMP-d2 conjugate working solution followed by 5 μL/well of anti-cAMP cryptate working solution. After incubation for 1 h at room temperature, the plates were read in a PerkinElmer Envision reader for time-resolved fluorescence resonance energy transfer detection at 620 nm and 665 nm.
# Quantification and Statistical Analysis
# All HTRF ratio data sets of test compounds were normalized to the Emax of CP55940 (100%) and obtained the means±standard error of the mean (SEM) of 2-3 independent experiments performed in technical replicates.
# hCB1R = hCB1R (Homo sapiens, UniProt P21554); assay: hCB1R binding (Kd hCB1R, Table 1)
# [3] = TR-FRET, membranes of SNAP-tagged human CB2R HEK293-TR cells, 100 μM GppNHp, nonspecific binding with SR144528, read-out: Kd hCB2R
# T1 sequence (P34972 whole entry): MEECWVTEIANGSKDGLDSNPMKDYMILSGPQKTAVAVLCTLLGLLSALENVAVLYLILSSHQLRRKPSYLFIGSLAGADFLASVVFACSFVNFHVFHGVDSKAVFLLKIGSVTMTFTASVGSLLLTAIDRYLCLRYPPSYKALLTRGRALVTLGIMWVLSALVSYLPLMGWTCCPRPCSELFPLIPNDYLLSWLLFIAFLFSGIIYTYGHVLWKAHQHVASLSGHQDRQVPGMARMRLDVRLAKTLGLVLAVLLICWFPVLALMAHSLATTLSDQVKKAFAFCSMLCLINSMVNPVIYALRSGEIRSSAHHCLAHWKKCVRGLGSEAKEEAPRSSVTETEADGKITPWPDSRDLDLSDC
# T2 sequence (P34972 whole entry): as above
# hCB1R, sequence (P21554 whole entry): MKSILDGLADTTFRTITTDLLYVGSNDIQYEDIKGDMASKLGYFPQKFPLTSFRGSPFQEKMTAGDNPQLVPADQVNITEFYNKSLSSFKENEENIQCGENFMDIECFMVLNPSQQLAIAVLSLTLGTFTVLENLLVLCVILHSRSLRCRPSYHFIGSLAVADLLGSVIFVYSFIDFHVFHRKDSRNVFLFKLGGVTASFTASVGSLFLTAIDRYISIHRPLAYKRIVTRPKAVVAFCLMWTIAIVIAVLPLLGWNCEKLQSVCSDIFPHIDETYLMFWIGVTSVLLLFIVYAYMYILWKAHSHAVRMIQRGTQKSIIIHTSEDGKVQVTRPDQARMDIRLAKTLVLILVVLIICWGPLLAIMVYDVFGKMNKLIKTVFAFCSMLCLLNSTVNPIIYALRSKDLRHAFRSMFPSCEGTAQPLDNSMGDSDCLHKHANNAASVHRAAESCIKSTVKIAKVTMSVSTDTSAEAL
Structure (SMILES),"Kd [1, 3] [nM]",EC50 [2] [nM],Functionality [2],Kd (hCB1R) [nM],Kd [1] [nM]
"COc1cc(C(C)(C)[C@@H](CCCCCN=[N+]=[N-])c2ccccc2)cc(OC)c1[C@H]1C=C(CN)[C@H]2C[C@@H]1C2(C)C [Example 14, ((1S,4S,5S)-4-(4-((S)-8-azido-2-methyl-3-phenyloctan-2-yl)-2,6-dimethoxyphenyl)-6,6-dimethylbicyclo[3.1.1]hept-2-en-2-yl)methanamine]",476,2690,inverse agonist,–,–
"CCN(CC)c1ccc2cc(/C=C/c3ccc(S(=O)(=O)[O-])c[n+]3CCCCCC(=O)NCC3=C[C@H](c4c(OC)cc(C(C)(C)[C@H](CCCCCN=[N+]=[N-])c5ccccc5)cc4OC)[C@@H]4C[C@H]3C4(C)C)c(=O)oc2c1 [Example 22, 1-(6-((((1S,4S,5S)-4-(4-((R)-8-azido-2-methyl-3-phenyloctan-2-yl)-2,6-dimethoxyphenyl)-6,6-dimethylbicyclo[3.1.1]hept-2-en-2-yl)methyl)amino)-6-oxohexyl)-6-((E)-2-(7-(diethylamino)-2-oxo-2H-chromen-3-yl)vinyl)pyridin-1-ium-3-sulfonate]",10.2,70.8,inverse agonist,1740,–
"COc1cc(C(C)(C)[C@H](CCCCCN=[N+]=[N-])c2ccccc2)cc(OC)c1[C@H]1C=C(CNC(=O)CCCCCNC(=O)CCc2ccc3n2[B-](F)(F)[N+]2=C(c4ccc[nH]4)C=CC2=C3)[C@H]2C[C@@H]1C2(C)C [Example 28, N-(((1S,4S,5S)-4-(4-((R)-8-azido-2-methyl-3-phenyloctan-2-yl)-2,6-dimethoxyphenyl)-6,6-dimethylbicyclo[3.1.1]hept-2-en-2-yl)methyl)-6-(3-(5,5-difluoro-7-(1H-pyrrol-2-yl)-5H-514,614-dipyrrolo[1,2-c:2′,1′-f][1,3,2]diazaborinin-3-yl)propanamido)hexanamide]",–,–,–,–,44.7
"CCN(CC)c1ccc2cc(/C=C/c3ccc(S(=O)(=O)[O-])c[n+]3CCCCCC(=O)NCC3=C[C@H](c4c(OC)cc(C(C)(C)C(CCCCCN=[N+]=[N-])c5ccccc5)cc4OC)[C@@H]4C[C@H]3C4(C)C)c(=O)oc2c1 (stereo partly drawn) [Example 20, 1-(6-((((1S,4S,5S)-4-(4-(8-azido-2-methyl-3-phenyloctan-2-yl)-2,6-dimethoxyphenyl)-6,6-dimethylbicyclo[3.1.1]hept-2-en-2-yl)methyl)amino)-6-oxohexyl)-6-((E)-2-(7-(diethylamino)-2-oxo-2H-chromen-3-yl)vinyl)pyridin-1-ium-3-sulfonate]",67.9,–,–,–,–
"COc1cc(C(C)(C)[C@H](CCCCCN=[N+]=[N-])c2ccccc2)cc(OC)c1[C@H]1C=C(CNC(=O)CCCCCNC(=O)c2ccc3c(c2)C(=O)OC32c3ccc(N)c(S(=O)(=O)O)c3Oc3c2ccc(N)c3S(=O)(=O)O)[C@H]2C[C@@H]1C2(C)C [Example 29, 3′,6′-diamino-5-((6-((((1S,4S,5S)-4-(4-((R)-8-azido-2-methyl-3-phenyloctan-2-yl)-2,6-dimethoxyphenyl)-6,6-dimethylbicyclo[3.1.1]hept-2-en-2-yl)methyl)amino)-6-oxohexyl)carbamoyl)-3-oxo-3H-spiro[isobenzofuran-1,9′-xanthene]-4′,5′-disulfonic acid]",24.9,–,–,3300,–
"COc1cc(C(C)(C)[C@H](CCCCCN=[N+]=[N-])c2ccccc2)cc(OC)c1[C@H]1C=C(CNC(=O)CCCCCNC(=O)CCCCC[N+]2=C(/C=C/C=C/C=C3/N(CCCS(=O)(=O)O)c4ccc(S(=O)(=O)O)cc4C3(C)C)C(C)(CCCCS(=O)(=O)O)c3cc(S(=O)(=O)[O-])ccc32)[C@H]2C[C@@H]1C2(C)C (stereo partly drawn) [Example 27, 1-(6-((6-((((1S,4S,5S)-4-(4-((R)-8-azido-2-methyl-3-phenyloctan-2-yl)-2,6-dimethoxyphenyl)-6,6-dimethylbicyclo[3.1.1]hept-2-en-2-yl)methyl)amino)-6-oxohexyl)amino)-6-oxohexyl)-2-((1E,3E)-5-((E)-3,3-dimethyl-5-sulfo-1-(3-sulfopropyl)indolin-2-ylidene)penta-1,3-dien-1-yl)-3-methyl-3-(4-sulfobutyl)-3H-indol-1-ium-5-sulfonate]",25.9,–,–,7050,–
"C#CCCC(=O)NCC1=C[C@H](c2c(OC)cc(C(C)(C)[C@H](CCCCCN=[N+]=[N-])c3ccccc3)cc2OC)[C@@H]2C[C@H]1C2(C)C [Example 19, N-(((1S,4S,5S)-4-(4-((R)-8-azido-2-methyl-3-phenyloctan-2-yl)-2,6-dimethoxyphenyl)-6,6-dimethylbicyclo[3.1.1]hept-2-en-2-yl)methyl)pent-4-ynamide]",0.42,33.1,inverse agonist,–,–
"CCCCCC(c1ccccc1)C(C)(C)c1cc(OC)c([C@H]2C=C(CNC(=O)CCCCC[n+]3cc(S(=O)(=O)[O-])ccc3/C=C/c3cc4ccc(N(CC)CC)cc4oc3=O)[C@H]3C[C@@H]2C3(C)C)c(OC)c1 (stereo partly drawn) [Example 16, 6-((E)-2-(7-(diethylamino)-2-oxo-2H-chromen-3-yl)vinyl)-1-(6-((((1S,4S,5S)-4-(2,6-dimethoxy-4-(2-methyl-3-phenyloctan-2-yl)phenyl)-6,6-dimethylbicyclo[3.1.1]hept-2-en-2-yl)methyl)amino)-6-oxohexyl)pyridin-1-ium-3-sulfonate]",214,–,–,–,–
"COc1cc(C(C)(C)[C@H](CCCCCN=[N+]=[N-])c2ccccc2)cc(OC)c1[C@H]1C=C(CN)[C@H]2C[C@@H]1C2(C)C [Example 15, ((1S,4S,5S)-4-(4-((R)-8-azido-2-methyl-3-phenyloctan-2-yl)-2,6-dimethoxyphenyl)-6,6-dimethylbicyclo[3.1.1]hept-2-en-2-yl)methanamine]",39.1,112,inverse agonist,–,–
"CCN(CC)c1ccc2cc(/C=C/c3ccc(S(=O)(=O)[O-])c[n+]3CCCCCC(=O)NCC3=C[C@H](c4c(OC)cc(C(C)(C)[C@@H](CCCCCN=[N+]=[N-])c5ccccc5)cc4OC)[C@@H]4C[C@H]3C4(C)C)c(=O)oc2c1 [Example 21, 1-(6-((((1S,4S,5S)-4-(4-((S)-8-azido-2-methyl-3-phenyloctan-2-yl)-2,6-dimethoxyphenyl)-6,6-dimethylbicyclo[3.1.1]hept-2-en-2-yl)methyl)amino)-6-oxohexyl)-6-((E)-2-(7-(diethylamino)-2-oxo-2H-chromen-3-yl)vinyl)pyridin-1-ium-3-sulfonate]",162,339,inverse agonist,–,–
"COc1cc(C(C)(C)[C@H](CCCCCN=[N+]=[N-])c2ccccc2)cc(OC)c1[C@H]1C=C(CNC(=O)CCCCCNC(=O)c2ccc3c(c2)C2(OC3=O)c3ccc(O)cc3Oc3cc(O)ccc32)[C@H]2C[C@@H]1C2(C)C [Example 26, N-(6-((((1S,4S,5S)-4-(4-((R)-8-azido-2-methyl-3-phenyloctan-2-yl)-2,6-dimethoxyphenyl)-6,6-dimethylbicyclo[3.1.1]hept-2-en-2-yl)methyl)amino)-6-oxohexyl)-3′,6′-dihydroxy-3-oxo-3H-spiro[isobenzofuran-1,9′-xanthene]-6-carboxamide]",30.3,–,–,1280,–
"COc1cc(C(C)(C)[C@H](CCCCCN=[N+]=[N-])c2ccccc2)cc(OC)c1[C@H]1C=C(CNC(=O)CCCCCNC(=O)c2ccc3c(c2)C(=O)OC32c3ccc(N(C)C)cc3Oc3cc(N(C)C)ccc32)[C@H]2C[C@@H]1C2(C)C [Example 25, N-(6-((((1S,4S,5S)-4-(4-((R)-8-azido-2-methyl-3-phenyloctan-2-yl)-2,6-dimethoxyphenyl)-6,6-dimethylbicyclo[3.1.1]hept-2-en-2-yl)methyl)amino)-6-oxohexyl)-3′,6′-bis(dimethylamino)-3-oxo-3H-spiro[isobenzofuran-1,9′-xanthene]-5-carboxamide]",2.78,–,–,396,–
"C#CCCC(=O)NCC1=C[C@H](c2c(OC)cc(C(C)(C)[C@@H](CCCCCN=[N+]=[N-])c3ccccc3)cc2OC)[C@@H]2C[C@H]1C2(C)C [Example 18, N-(((1S,4S,5S)-4-(4-((S)-8-azido-2-methyl-3-phenyloctan-2-yl)-2,6-dimethoxyphenyl)-6,6-dimethylbicyclo[3.1.1]hept-2-en-2-yl)methyl)pent-4-ynamide]",2.1,40.7,inverse agonist,–,–
"COc1cc(C(C)(C)[C@@H](CCCCCN=[N+]=[N-])c2ccccc2)cc(OC)c1[C@H]1C=C(CNC(=O)CCCCCCNc2ccc([N+](=O)[O-])c3nonc23)[C@H]2C[C@@H]1C2(C)C [Example 23, N-(((1S,4S,5S)-4-(4-((S)-8-azido-2-methyl-3-phenyloctan-2-yl)-2,6-dimethoxyphenyl)-6,6-dimethylbicyclo[3.1.1]hept-2-en-2-yl)methyl)-7-((7-nitrobenzo [c][1,2,5]oxadiazol-4-yl)amino)heptanamide]",158,–,Antagonist,–,–
